Test results reported in patent publication US20260365698A1, “STAPLED PEPTIDES FOR SENSITIZATION OF CANCER TO TREATMENT” (Purdue Research Foundation, priority 2022, published 2026).
Entries after “also recorded” stand apart in the source; their conditions may differ. Bridge positions count the residues as written; N and C are the ends. Square brackets hold non-standard residues; d marks the D form. Peptide text beside a SMILES is read from it. S5 = C=CCCC[C@](C)(N)C(=O)O

Experiments:
[1] = tested on: glutathione (GSH) in A549 cells; assay: GSH-Glo glutathione quantification; type: cell-based; conditions: 24 hours
Experimental: Data are from three independent experiments with standard deviation. ****p<0.0001, one-way ANOVA.
The manufacturer's instructions were followed. Cells were plated at a density of 20,000 cells/ml and treated with various concentrations of NIS for 24 hours.

[2] = tested on: thioredoxin reductase 1 (TrxR1) in A549 cells; assay: Western blot, TrxR1 expression; type: cell-based; conditions: 72 hours
Experimental: After confirming the in vitro activity of NIS, its mechanism in a cellular context was examined. Western blots were carried out in the A549 non-small cell lung cancer cell line to show the effects of N1S inhibition on the protein expression of Nrf2-regulated proteins. Briefly, A549 cells were seeded in 6-well plates at a concentration of 2×10^5 cells/ml in 2.5 ml. Cells were treated the next day with either peptide at the desired concentration or DMSO. After a 72-hour incubation, cells were collected by trypsinization and centrifugation. Pellets were washed with PBS three times before the pellet was resuspended in 250 μL of RIPA buffer containing protease inhibitor and kept on ice for 30 minutes with intermittent vortex. The cells were then spun at 16,000 g for 5 minutes, and the supernatant was collected. Protein concentration of lysate was normalized with Pierce BCA Protein Assay Kit (Thermo Fisher Scientific, Waltham, MA). Equal volumes of lysate were mixed with 2× Laemmli sample buffer before separating on 4-15% Mini Protean TGX SDS-PAGE (Bio-Rad Laboratories, Hercules, CA). […]
ImageJ was used for quantification of all bands. Primary antibodies: TrxR1 (Santa Cruz Biotechnology, Dallas, TX), sc-28321, 1:100 dilution (~55 kDa band analyzed); j-actin (Cell Signaling Technology, Inc., Danvers, MA), #3700, 1:1000. […]

[3] = target: T1, Nrf2-MafG-DNA ARE complex (Homo sapiens, UniProt O15525); assay: Fluorescence polarization assay with Nrf2, MafG and FAM-labeled ARE; type: biochemical; conditions: 200 nM His-MBP-NRF2, 200 nM His-MafG, 20 nM FAM-labeled ARE; 'as low as'
T1 construct: listing gives 93-aa segments
T1 sequence (O15525 whole entry, one chain of several): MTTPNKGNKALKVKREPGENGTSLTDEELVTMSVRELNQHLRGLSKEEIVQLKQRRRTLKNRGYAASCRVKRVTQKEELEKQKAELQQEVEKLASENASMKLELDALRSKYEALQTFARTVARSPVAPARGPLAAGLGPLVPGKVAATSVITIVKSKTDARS
Experimental: Briefly, a 96-well plate (VWR® Solid Bottom Assay Plates, 96-well, black) was used to encapsulate each fluorescence polarization reaction. Unless otherwise stated (i.e., ARE only, ARE+MafG), each 100-μL reaction contained 200 nM purified recombinant His-MBP-NRF2, 200 nM purified recombinant His-MafG, various concentrations of molecule, and 20 nM 5′ FAM-labeled ARE all together in 1× PBS solution.
First, NRF2 was incubated with molecule for 5 minutes with shaking, followed by the addition of MafG for another 5-minute incubation. Finally, ARE was added, and the MafG-NRF2-ARE system was incubated for 10 minutes with shaking. After incubation, the plate was placed into a plate reader (Molecular Devices SpectraMax® iD5 Multi-Mode Microplate Reader). The fluorescence polarization measurement was performed at excitation/emission values of 470:525 nm, respectively. The samples were in triplicate (n=3).

proteinase K = assay: Proteinase K peptide stability assay; conditions: 55 μM peptide, 10 μg/mL proteinase K; some significant degradation
Experimental: Data are from three independent replicates with standard error indicated. Scale bar indicates 50 μm.
Peptide stability assays were performed using the protocols described in Cromm et al., Protease-resistant and cell-permeable double-stapled peptides targeting the Rab8a GTPase, ACS Chemical Biology 11(8): 2375-2382 (2016). Briefly, 55 μM of peptide was incubated with 10 μg/mL proteinase K for the indicated timepoints. At the end of each time point, 50 μL of the reaction mixture were quenched in 100 μL of a 1:1 mixture acetonitrile/water+1% formic acid (FA). Samples were injected and analyzed on a Triple quad. Analysis was done using an Agilent Technologies 1200 Series attached to an Agilent Technologies 6460 Triple Quad LC/MS. Analysis was performed with a ZORBAX XDB-C18 […], 2.1×50 mm column (Agilent Technologies, Inc., Santa Clara, CA). Eluent A: H2O with 0.1% FA. Eluent B: MeCN with 0.1% FA. Purity analysis utilized the gradient as follows: (A:B, 0.3 mL/min): 95:5, 0 minutes; 95:5, 1 minute; 5:95, 5 minutes; 5:95, 8 minutes: 95:5, 8.5 minutes; 95:5, 12.5 minutes.

HEK-293T cells = assay: Toxicity to the cells in the luciferase assay; type: cell-based; conditions: 16 hours, listed as NIS
Experimental: (§1) The peptides from Example 1 were screened for Nrf2 inhibition using a previously developed dual luciferase assay. Ren et al., Brusatol enhances the efficacy of chemotherapy by inhibiting the Nrf2-mediated defense mechanism, Biological Sciences 108(4): 1433-1438 (2011). Briefly, HEK-293T cells stably expressing ARE-firefly luciferase and TK-Renilla luciferase were used. The cells were treated with different concentrations of compounds N1 (SEQ ID NO: 3), N1 S (SEQ ID NO: 6), N2 (SEQ ID NO: 4), N2S (SEQ ID NO: 7), N3 (SEQ ID NO: 5), and N3S (SEQ ID NO: 8) for 16 hours. The cells were lysed in 1× passive lysis buffer, and both firefly luciferase and Renilla luciferase activities were measured using the Promega Dual-Luciferase™ Reporter (DLR™) Assay System and a luminometer (Turner Biosystems 20/20^n Luminometer). The samples were in triplicate for all concentrations of compounds (n=3).

Nrf2 = assay: Dual luciferase assay, NQO1-ARE firefly / TK-Renilla reporter; type: cell-based; conditions: HEK-293T cells; for inhibition of Nrf2 activity: 16 hours, 50 μM in FIG. 4A
Experimental: The results are averages from three replicates.
as §1

- lowest concentration decreasing binding of the heterodimer to the DNA [3]: 0.2 µM
- time at which significant degradation starts (proteinase K): 24 h
- inhibition of Nrf2 activity (Nrf2): inhibit Nrf2
- inhibition of Nrf2 activity (Nrf2; listed as NIS): most potent inhibition of Nrf2 activity
Compound: CC[C@H](C)[C@H](NC(C)=O)C(=O)N[C@H](C(=O)N[C@@H](CCC(=O)O)C(=O)N[C@@H](CC(C)C)C(=O)N[C@@H](CCC(=O)O)C(=O)N[C@@]1(C)CCCC=CCCC[C@@](C)(C(=O)N[C@@H](CC(C)C)C(=O)N[C@@H](CCCCN)C(=O)N[C@@H](CC(=O)O)C(=O)N[C@@H](CCC(=O)O)C(=O)N[C@@H](CCCCN)C(=O)N[C@@H](CCC(=O)O)C(N)=O)NC(=O)[C@H](CC(=O)O)NC(=O)[C@H](CC(C)C)NC(=O)[C@H](CC(=O)O)NC1=O)C(C)C [N1S] (Ac-IVELE[S5]DLD[S5]LKDEKE-NH2; staple 6-10)
- glutathione (GSH) levels [1]: Significant reductions
- TrxR1 protein expression [2]: decrease
- toxicity to the cells (HEK-293T cells): no toxicity; also recorded: without showing toxicity
- dose response for Nrf2 inhibition (Nrf2; FIG. 4B): showed a dose-response curve for Nrf2 inhibition
